One may read the melting point as the temperature, or range, at which the solid turns liquid. What is called Ki is a dissociation constant, usually derived from enzyme kinetics or from competition with a known ligand.

Structures can show the parent of a compound that is named as a salt.

Tested on in the first series: not given
Conditions: not given
Compound `CN1CCC[C@H]1COC(=O)c1cccc(Br)c1` (as salt: hydrochloride) [Compound 4, (S)-(1-Methyl-2-pyrrolidinyl)methyl 3-bromobenzoate] displayed a melting point of 99 to 101.4 °C.

On to `Cc1ccccc1C(=O)OC[C@@H]1CCCN1C` (as salt: hydrochloride) [Compound 5, (S)-(1-Methyl-2-pyrrolidinyl)methyl 2-methylbenzoate], for which the melting point fell in the range of 130.5 to 131.6 °C.

`CN1CCC[C@H]1COC(=O)c1ccc2ccccc2c1` (as salt: hydrochloride) [Compound 18, (S)-(1-Methyl-2-pyrrolidinyl)methyl 2-naphthoate] came in with a melting point of 125.5 to 127.1 °C.

As to `CN1CCCC1CCOC(=O)c1ccccc1` (racemic) (as salt: hydrochloride) [Compound 7, (±)-2-(1-Methyl-2-pyrrolidinyl)ethyl benzoate], the melting point lay within 88.6 to 89.1 °C. On the same count and under the same terms, in the case of `CN1CCCC1CCOC(=O)c1cccc(F)c1` (racemic) (as salt: hydrochloride) [Compound 8, (±)-2-(1-Methyl-2-pyrrolidinyl)ethyl 3-fluorobenzoate] it was 106.8 to 107.5 °C. Same read-out and setting: in the case of `CN1CCCC1CCOC(=O)c1cccc(Cl)c1` (racemic) (as salt: hydrochloride) [Compound 9, (±)-2-(1-Methyl-2-pyrrolidinyl)ethyl 3-chlorobenzoate] it was 144.7 to 146.2 °C; in that of `CN1CCCC1CCOC(=O)Cc1ccccc1` (racemic) (as salt: hydrochloride) [Compound 16, (±)-2-(-1-Methyl-2-pyrrolidinyl)ethyl 2-phenylacetate], 86.7 to 87.4 °C. Still for that read-out and setting: next, `CN1CCCC1CCOC(=O)c1ccc2ccccc2c1` (racemic) (as salt: hydrochloride) [Compound 19, (±)-2-(1-Methyl-2-pyrrolidinyl)ethyl 2-naphthoate]: 155.6 to 157.4 °C; `CN1CCCC1CCOC(=O)C(c1ccccc1)c1ccccc1` (racemic) (as salt: hydrochloride) [Compound 21, (±)-2-(-1-Methyl-2-pyrrolidinyl)ethyl 2,2-diphenylacetate]: 115.3 to 117.2 °C.

The target of a further series is T1, α4β2 nAChR (Rattus norvegicus, UniProt P09483+P12390).
T1 construct: the rat complete brain P1 fraction (occupying 2 mg of wet tissue for each assay); from tissue; host or cells: whole rat brain, synaptosome pellet (fraction P1)
T1 sequence (P09483 31-630): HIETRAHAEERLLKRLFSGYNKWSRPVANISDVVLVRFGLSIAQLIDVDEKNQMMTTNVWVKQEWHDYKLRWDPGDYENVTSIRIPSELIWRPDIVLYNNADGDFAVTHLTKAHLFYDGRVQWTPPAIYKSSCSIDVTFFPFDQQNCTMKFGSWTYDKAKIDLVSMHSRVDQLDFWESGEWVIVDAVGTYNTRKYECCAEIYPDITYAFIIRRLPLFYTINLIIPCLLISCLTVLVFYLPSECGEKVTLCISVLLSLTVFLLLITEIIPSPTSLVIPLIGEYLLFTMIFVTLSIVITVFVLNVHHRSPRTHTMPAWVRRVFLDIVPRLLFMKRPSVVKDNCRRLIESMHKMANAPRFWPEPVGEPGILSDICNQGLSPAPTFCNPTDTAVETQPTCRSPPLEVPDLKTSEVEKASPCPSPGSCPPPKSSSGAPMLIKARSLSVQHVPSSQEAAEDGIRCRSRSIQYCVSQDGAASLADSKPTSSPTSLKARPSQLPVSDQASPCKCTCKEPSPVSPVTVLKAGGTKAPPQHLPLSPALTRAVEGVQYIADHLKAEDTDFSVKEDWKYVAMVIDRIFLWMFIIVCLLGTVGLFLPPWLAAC
T1 sequence (P12390 25-500): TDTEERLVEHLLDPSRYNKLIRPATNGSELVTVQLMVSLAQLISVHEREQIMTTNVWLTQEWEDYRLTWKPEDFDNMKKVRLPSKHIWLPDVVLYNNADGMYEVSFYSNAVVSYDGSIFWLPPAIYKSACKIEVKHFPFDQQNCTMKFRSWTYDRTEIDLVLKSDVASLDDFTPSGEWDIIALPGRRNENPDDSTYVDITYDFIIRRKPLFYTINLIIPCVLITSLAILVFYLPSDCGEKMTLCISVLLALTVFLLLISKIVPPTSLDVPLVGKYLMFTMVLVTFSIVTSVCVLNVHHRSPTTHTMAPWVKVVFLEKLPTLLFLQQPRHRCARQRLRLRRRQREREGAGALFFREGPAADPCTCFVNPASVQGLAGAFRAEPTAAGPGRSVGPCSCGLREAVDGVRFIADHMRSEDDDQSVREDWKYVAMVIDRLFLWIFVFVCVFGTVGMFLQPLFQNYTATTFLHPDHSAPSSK
Particulars: bupropion included as comparative value, not used in the trial; cited from earlier work.
For `CC(NC(C)(C)C)C(=O)c1cccc(Cl)c1` (stereo not shown) [Bupropion], the Ki is 10 µM.
